Experimental data reported in ChEMBL document CHEMBL1129617, “Synthesis and antiretroviral evaluation of new alkoxy and aryloxy phosphate derivatives of 3'-azido-3'-deoxythymidine” (J Med Chem, 1996).

tested on: CCRF-CEM; test: Concentration required to reduce 50% of the number of CEM/O cells in the HIV-1 infected cell cultures.; assay type: functional, cell-based; conditions: Homo sapiens

SMILES	EC50 [nM]
CCCCCCCCCCCCO[C@@H](C)COP(=O)(O)OC[C@H]1O[C@@H](n2cc(C)c(=O)[nH]c2=O)C[C@@H]1N=[N+]=[N-]	320
CCCCCCCCCCCCOC[C@H](C)OP(=O)(O)OCC1OC(n2cc(C)c(=O)[nH]c2=O)CC1N=[N+]=[N-] (stereo partly drawn)	200
Cc1cn(C2CC(N=[N+]=[N-])C(COP(=O)(O)OCCOc3cccc4ccccc34)O2)c(=O)[nH]c1=O (stereo not drawn)	13
CCCCCCCCCCCCOCCOP(=O)(O)OCC1OC(n2cc(C)c(=O)[nH]c2=O)CC1N=[N+]=[N-] (stereo not drawn)	115
Cc1cn(C2CC(N=[N+]=[N-])C(COP(=O)(O)OCCOc3ccc4ccccc4c3)O2)c(=O)[nH]c1=O (stereo not drawn)	15

The next lines start with the values.

EC50 [nM]	SMILES
500	CCCCCCCCCCCCO[C@H](C)COP(=O)(O)OCC1O[C@@H](n2cc(C)c(=O)[nH]c2=O)C[C@@H]1N=[N+]=[N-] (single isomer, unassigned)
2170	CCCCCCCCCCCCOC[C@@H](C)OP(=O)(O)OCC1OC(n2cc(C)c(=O)[nH]c2=O)CC1N=[N+]=[N-] (stereo partly drawn)
20	Cc1cn(C2CC(N=[N+]=[N-])C(COP(=O)(O)OCCOc3ccccc3)O2)c(=O)[nH]c1=O (stereo not drawn)

tested on: CEM-TK(+); test: Concentration required to reduce 50% of the number of CEM/TK cells in the HIV-2 infected cell cultures.; assay type: functional, cell-based; conditions: Homo sapiens

SMILES	EC50 [nM]
CCCCCCCCCCCCO[C@@H](C)COP(=O)(O)OC[C@H]1O[C@@H](n2cc(C)c(=O)[nH]c2=O)C[C@@H]1N=[N+]=[N-]	> 50000
CCCCCCCCCCCCOC[C@H](C)OP(=O)(O)OCC1OC(n2cc(C)c(=O)[nH]c2=O)CC1N=[N+]=[N-] (stereo partly drawn)	> 50000
Cc1cn(C2CC(N=[N+]=[N-])C(COP(=O)(O)OCCOc3cccc4ccccc34)O2)c(=O)[nH]c1=O (stereo not drawn)	> 125000
CCCCCCCCCCCCOCCOP(=O)(O)OCC1OC(n2cc(C)c(=O)[nH]c2=O)CC1N=[N+]=[N-] (stereo not drawn)	> 50000
Cc1cn(C2CC(N=[N+]=[N-])C(COP(=O)(O)OCCOc3ccc4ccccc4c3)O2)c(=O)[nH]c1=O (stereo not drawn)	> 125000
Cc1cn([C@H]2C[C@H](N=[N+]=[N-])[C@@H](CO)O2)c(=O)[nH]c1=O [ZIDOVUDINE]	> 100000

Next, values leading:

EC50 [nM]	SMILES
> 50000	CCCCCCCCCCCCO[C@H](C)COP(=O)(O)OCC1O[C@@H](n2cc(C)c(=O)[nH]c2=O)C[C@@H]1N=[N+]=[N-] (single isomer, unassigned)
> 50000	CCCCCCCCCCCCOC[C@@H](C)OP(=O)(O)OCC1OC(n2cc(C)c(=O)[nH]c2=O)CC1N=[N+]=[N-] (stereo partly drawn)
> 125000	Cc1cn(C2CC(N=[N+]=[N-])C(COP(=O)(O)OCCOc3ccccc3)O2)c(=O)[nH]c1=O (stereo not drawn)

tested on: CCRF-CEM; test: Concentration required to reduce 50% of the number of CEM/O cells in the HIV-2 infected cell cultures.; assay type: functional, cell-based; conditions: Homo sapiens

SMILES	EC50 [nM]
CCCCCCCCCCCCO[C@@H](C)COP(=O)(O)OC[C@H]1O[C@@H](n2cc(C)c(=O)[nH]c2=O)C[C@@H]1N=[N+]=[N-]	350
CCCCCCCCCCCCOC[C@H](C)OP(=O)(O)OCC1OC(n2cc(C)c(=O)[nH]c2=O)CC1N=[N+]=[N-] (stereo partly drawn)	260
Cc1cn(C2CC(N=[N+]=[N-])C(COP(=O)(O)OCCOc3cccc4ccccc34)O2)c(=O)[nH]c1=O (stereo not drawn)	28
CCCCCCCCCCCCOCCOP(=O)(O)OCC1OC(n2cc(C)c(=O)[nH]c2=O)CC1N=[N+]=[N-] (stereo not drawn)	133
Cc1cn(C2CC(N=[N+]=[N-])C(COP(=O)(O)OCCOc3ccc4ccccc4c3)O2)c(=O)[nH]c1=O (stereo not drawn)	20

More lines, now with the values ahead:

EC50 [nM]	SMILES
500	CCCCCCCCCCCCO[C@H](C)COP(=O)(O)OCC1O[C@@H](n2cc(C)c(=O)[nH]c2=O)C[C@@H]1N=[N+]=[N-] (single isomer, unassigned)
2670	CCCCCCCCCCCCOC[C@@H](C)OP(=O)(O)OCC1OC(n2cc(C)c(=O)[nH]c2=O)CC1N=[N+]=[N-] (stereo partly drawn)
18	Cc1cn(C2CC(N=[N+]=[N-])C(COP(=O)(O)OCCOc3ccccc3)O2)c(=O)[nH]c1=O (stereo not drawn)

tested on: CCRF-CEM; test: Concentration required to reduce 50% of the number of CEM/O cells in the mock infected cell cultures.; assay type: functional; conditions: Homo sapiens

SMILES	CC50 [nM]
CCCCCCCCCCCCO[C@@H](C)COP(=O)(O)OC[C@H]1O[C@@H](n2cc(C)c(=O)[nH]c2=O)C[C@@H]1N=[N+]=[N-]	94500
CCCCCCCCCCCCO[C@H](C)COP(=O)(O)OCC1O[C@@H](n2cc(C)c(=O)[nH]c2=O)C[C@@H]1N=[N+]=[N-] (single isomer, unassigned)	93000
CCCCCCCCCCCCOC[C@@H](C)OP(=O)(O)OCC1OC(n2cc(C)c(=O)[nH]c2=O)CC1N=[N+]=[N-] (stereo partly drawn)	95900
CCCCCCCCCCCCOC[C@H](C)OP(=O)(O)OCC1OC(n2cc(C)c(=O)[nH]c2=O)CC1N=[N+]=[N-] (stereo partly drawn)	88000
Cc1cn(C2CC(N=[N+]=[N-])C(COP(=O)(O)OCCOc3cccc4ccccc34)O2)c(=O)[nH]c1=O (stereo not drawn)	> 125000
CCCCCCCCCCCCOCCOP(=O)(O)OCC1OC(n2cc(C)c(=O)[nH]c2=O)CC1N=[N+]=[N-] (stereo not drawn)	76900
Cc1cn(C2CC(N=[N+]=[N-])C(COP(=O)(O)OCCOc3ccc4ccccc4c3)O2)c(=O)[nH]c1=O (stereo not drawn)	> 125000
Cc1cn(C2CC(N=[N+]=[N-])C(COP(=O)(O)OCCOc3ccccc3)O2)c(=O)[nH]c1=O (stereo not drawn)	> 125000
Cc1cn([C@H]2C[C@H](N=[N+]=[N-])[C@@H](CO)O2)c(=O)[nH]c1=O [ZIDOVUDINE]	> 100000

tested on: not listed separately; test: Selectivity index in the HIV-1 infected cell cultures.; assay type: functional; conditions: not given

SMILES	SI
CCCCCCCCCCCCO[C@@H](C)COP(=O)(O)OC[C@H]1O[C@@H](n2cc(C)c(=O)[nH]c2=O)C[C@@H]1N=[N+]=[N-]	295
CCCCCCCCCCCCO[C@H](C)COP(=O)(O)OCC1O[C@@H](n2cc(C)c(=O)[nH]c2=O)C[C@@H]1N=[N+]=[N-] (single isomer, unassigned)	186
CCCCCCCCCCCCOC[C@@H](C)OP(=O)(O)OCC1OC(n2cc(C)c(=O)[nH]c2=O)CC1N=[N+]=[N-] (stereo partly drawn)	44
CCCCCCCCCCCCOC[C@H](C)OP(=O)(O)OCC1OC(n2cc(C)c(=O)[nH]c2=O)CC1N=[N+]=[N-] (stereo partly drawn)	440
Cc1cn(C2CC(N=[N+]=[N-])C(COP(=O)(O)OCCOc3cccc4ccccc34)O2)c(=O)[nH]c1=O (stereo not drawn)	>9615
CCCCCCCCCCCCOCCOP(=O)(O)OCC1OC(n2cc(C)c(=O)[nH]c2=O)CC1N=[N+]=[N-] (stereo not drawn)	669
Cc1cn(C2CC(N=[N+]=[N-])C(COP(=O)(O)OCCOc3ccc4ccccc4c3)O2)c(=O)[nH]c1=O (stereo not drawn)	>8333
Cc1cn(C2CC(N=[N+]=[N-])C(COP(=O)(O)OCCOc3ccccc3)O2)c(=O)[nH]c1=O (stereo not drawn)	>6250
Cc1cn([C@H]2C[C@H](N=[N+]=[N-])[C@@H](CO)O2)c(=O)[nH]c1=O [ZIDOVUDINE]	>16666
